Measurements taken from PubChem BioAssay (NCI).
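Grown in 96-well plates, cells were treated for 48 hours with each compound at five concentrations. Insufficient inhibition: endpoint recorded as highest concentration tested. TGI is the concentration that stops growth completely.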

Tests used:
Assay in all cases: inhibition of tumour cell growth, NCI panel, 48 h
[1] = tested on: HS 578T breast
[2] = tested on: MDA-N
[3] = tested on: MALME-3M melanoma
[4] = tested on: OVCAR-8 ovarian
[5] = tested on: HCT-116 colon
[6] = tested on: MCF7 breast
[7] = tested on: HOP-62 NSCLC
[8] = tested on: T-47D breast
[9] = tested on: ACHN renal
[10] = tested on: NCI-H23 lung
[11] = tested on: MDA-MB-231 breast
[12] = tested on: LOX IMVI melanoma
[13] = tested on: K-562 leukemia
[14] = tested on: COLO 205 colon
[15] = tested on: A498 renal
[16] = tested on: SW-620 colon
[17] = tested on: PC-3 prostate
[18] = tested on: RXF 393 renal
[19] = tested on: TK-10 renal
[20] = tested on: UO-31 renal
[21] = tested on: SF-295 CNS
[22] = tested on: HL-60(TB) leukemia
[23] = tested on: OVCAR-5 ovarian
[24] = tested on: CCRF-CEM leukemia
[25] = tested on: OVCAR-3 ovarian
[26] = tested on: IGROV1 ovarian
[27] = tested on: MOLT-4 leukemia
[28] = tested on: HT29 colon
[29] = tested on: SK-OV-3 ovarian
[30] = tested on: SNB-19 CNS
[31] = tested on: BT-549 breast
[32] = tested on: EKVX NSCLC
[33] = tested on: M14 melanoma
[34] = tested on: NCI-H460 lung
[35] = tested on: KM12 colon
[36] = tested on: SK-MEL-2 melanoma
[37] = tested on: NCI-H226 lung
[38] = tested on: SK-MEL-28 melanoma
[39] = tested on: SF-539 CNS
[40] = tested on: SK-MEL-5 melanoma
[41] = tested on: NCI/ADR-RES ovarian
[42] = tested on: U251 CNS
[43] = tested on: UACC-62 melanoma
[44] = tested on: SR leukemia
[45] = tested on: RPMI-8226 leukemia
[46] = tested on: OVCAR-4 ovarian
[47] = tested on: DU-145 prostate
[48] = tested on: MDA-MB-435
[49] = tested on: HOP-92 NSCLC
[50] = tested on: UACC-257 melanoma
[51] = tested on: HCT-15 colon
[52] = tested on: 786-0 renal
[53] = tested on: A549 NSCLC
[54] = tested on: SNB-75 CNS
[55] = tested on: SF-268 CNS
[56] = tested on: SN12C renal
[57] = tested on: CAKI-1 renal
[58] = tested on: NCI-H522 lung

Measured: TGI

CC(C(=O)N1c2ccccc2Sc2ccccc21)N1c2ccccc2Sc2ccccc21 (stereo not drawn)
not listed: [57] | [58]
> 100 µM: all other assays above

O=C(O)C1C(C(=O)O)C(C(=O)O)C1C(=O)O (stereo not drawn)
not listed: [22]
> 100 µM: all other assays above
